Results taken from patent EP1289557B1, “CANCER TREATMENT COMPOSITION CONTAINING AN ANTI-NEOPLASTIC AGENT AND A PDE4 INHIBITOR” (GLAXO GROUP LIMITED, priority 2000, dated 2001).

Legend:
RKO (colon) = assay: Tumor cell growth (sulforhodamine B) after chemoprotectant regimen and paclitaxel; format: cell-based, human; details: forskolin (100 µM) plus PDE4 inhibitor (1 µM), then paclitaxel (100 nM) 24 hours; versus DMSO pretreatment
Method: (§1) The human tumor cell lines HT-29 (colon: ATCC# HTB 38), RKO (colon, ATCC# HTB 130), lines A549 (lung, ATCC# CCL 185), and MDA468 (breast, ATCC# HTB 132) were obtained from the American Type Culture Collection and maintained in DMEM containing 10% FBS. Tumor cells were grown at 37°C in a humidified atmosphere of 5% CO2. Adherent tumor cells were seeded into 96 well plates and incubated for six hours to allow for attachment. After six hours the chemoprotectants forskolin (100 µM) plus rolipram (1 µM) or forskolin (100 µM) plus Ariflo™ (1µM) were added. After overnight incubation, paclitaxel (100 nM) was added for 24 hours. Cells were then washed free of chemoprotectants and paclitaxel, placed in fresh media, and grown for 5 days. Growth was measured daily using sulforhodamine B (Skehan P. et. al., (1990), J. Nat'l Cancer Inst 82:1107-12). The results are depicted in Figure 8.

HT-29 (colon) = assay: as above; format: cell-based, human; details: forskolin (100 µM) plus PDE4 inhibitor (1 µM), then paclitaxel (100 nM) 24 hours; versus DMSO pretreatment
Method: as §1

A549 (lung) = assay: as above; format: cell-based, human; details: forskolin (100 µM) plus PDE4 inhibitor (1 µM), then paclitaxel (100 nM); cell line not completely inhibited by paclitaxel
Method: as §1

[1] = test system: expanded CD34^+ stem cells; assay: Flow cytometric (FACS) evaluation of percent live cells after chemoprotectant pretreatment and paclitaxel; format: cell-based, Human; details: pretreatment rolipram (1µM) plus Forskolin (100 µM) 24 hours
Method: Prevention of myelosuppression was shown by protection of neutrophil progenitors by PDE4 inhibitors from the cytotoxic effects of cancer chemotherapeutic agents. In Examples 2-7 a variety of chemically distinct PDE4 inhibitors were tested for their ability to protect neutrophil progenitors. Three methods, more completely described in the following examples, were utilized for a determination of cell survival and ability to produce daughter cells of primary human neutrophil progenitors: (1) a FACS assay which determined the percent of live cells by size and granularity; (2) a colony forming assay which measured the number of CFU-GM progenitors (a specific early stage neutrophil progenitor); and (3) a cell-based EUSA which measured CD15 antigen the value of which was proportional to the number of neutrophil lineage cells. This assay allows evaluation of neutrophil progenitors (cells that can divide and produce daughter neutrophil-lineage cells) at multiple stages of differentiation.
Human bone marrow samples were collected from presumed healthy human donors following informed consent through an agreement with Duke University Medical Center, Durham, North Carolina. Mononuclear cells were isolated using a 1.077 Ficoll-Paque gradient according to the published procedure (Dornsife, RE et al., Antimicrob Agents Chemother, 35: 322-328, (1991)) and were suspended in HBSS with 2% FBS at a concentration of 5 X 10^7 cells/ml. CD34^+ stem cells were isolated by "StemSep™ CD34^+ stem cell selection kit" by following the instructions from the manufacturer (Stem Cell Technologies). Cells were adjusted to 1 x 10^6 cells/ml in complete growth media and maintained in a humidified, 5% CO2 incubator. The complete growth media was IMDM supplemented with 20% FBS, 1% penicillin-streptomycin antibiotics, the recombinant human cytokines (Biosource)Flt-3/Flk-2 ligand (50 ng/ml), stem cell factor (50 ng/ml), interleukin-3 (40ng/ml), and G-CSF (10 ng/ml). The cells were maintained at a density of between 0.5 and 3 x 10^5 cells/ml. The CD34+ stem cells were expanded in culture over an average range of 11 to 23 days. Five groups of expanded CD34+ cells were treated with rolipram (1µM), plus Forskolin (100 µM), an adenylate cyclase activator, for 24 hours and five groups of expanded CD34+ cells were treated with DMSO for 24 hours. After 24 hours, to the 5 sets of cells that were treated with DMSO and 5 groups of cells treated with rolipram plus forskolin, paclitaxel was added to give final concentrations of 0, 30, 100, 300, and 600 nM of paclitaxel respectively and incubated for an additional 24 hours. After the 48 hours of treatment, the cells were counted, washed and re-suspended in PBS with 2% FBS. […] The prepared cells were analyzed on a BD FACSort flow cytometer. […]

[2] = Cell based assays utilized herein, PDE4 inhibitor used alone; details: without forskolin

| SMILES | effect of chemoprotectant regimen on inhibition of tumour cell growth by paclitaxel (RKO (colon)) | effect of chemoprotectant regimen on inhibition of tumour cell growth by paclitaxel (HT-29 (colon)) | effect of chemoprotectant regimen on inhibition of tumour cell growth by paclitaxel (A549 (lung)) | surviving cell fractions ([1]; then paclitaxel 30nM 24 hours, DMSO pretreatment gave 45%) | surviving cell fractions ([1]; then paclitaxel 100nM 24 hours, DMSO pretreatment gave 27%) | surviving cell fractions ([1]; then paclitaxel 300nM 24 hours, DMSO pretreatment gave 23%) | surviving cell fractions ([1]; then paclitaxel 600nM 24 hours, DMSO pretreatment gave 18%) | protective effect when used alone [2] |
| --- | --- | --- | --- | --- | --- | --- | --- | --- |
| COc1ccc([C@]2(C#N)CC[C@@H](C(=O)O)CC2)cc1OC1CCCC1 [Ariflo™, cis-4-cyano-4-[3-(cyclopentyloxy)-4-methoxyphenyl]cyclohexane-1-carboxylic acid] | no effect on the inhibition of tumour cell growth | no effect on the inhibition of tumour cell growth | no additional protection | – | – | – | – | – |
| COc1ccc(C2CNC(=O)C2)cc1OC1CCCC1 (centres unmarked) [Rolipram, rolipram] | no effect on the inhibition of tumour cell growth | no effect on the inhibition of tumour cell growth | no additional protection | 86% | 81% | 63% | 59% | little protective effect |
